{"source": "patent US4169953A", "about": "(priority 1977, dated 1979)", "key": {"in vitro": {"assay": "in vitro", "settings": "chicken, chick embryo fibroblasts"}, "Newcastle disease virus": {"system": "Newcastle disease virus", "assay": "microbe, parasite or virus in culture", "type": "cell-based", "settings": "avian paramyxovirus 1, in Gallus gallus"}}, "note": "Counter-ions that a name gives are not always drawn.", "data": [{"smiles": "O=C(OC1CCCC1)C12CCCC(C1)C1CCC2C1", "note": "(centres unmarked)", "values": [{"measurement": "MCC", "setting": "in vitro", "result": 200, "unit": "µg/mL"}, {"measurement": "MIC", "setting": "Newcastle disease virus", "result": 40, "unit": "µg/mL"}]}, {"smiles": "O=C(OC1CCCCC1)C12CCCC(C1)C1CCC2C1", "note": "(centres unmarked)", "values": [{"measurement": "MCC", "setting": "in vitro", "result": 200, "unit": "µg/mL"}, {"measurement": "MIC", "setting": "Newcastle disease virus", "result": 200, "unit": "µg/mL"}]}, {"smiles": "O=C(OC1CC2CC1C1CCCC21)C12CCCC(C1)C1CCC2C1", "note": "(centres unmarked)", "values": [{"measurement": "MCC", "setting": "in vitro", "result": 1000, "unit": "µg/mL"}, {"measurement": "MIC", "setting": "Newcastle disease virus", "result": 200, "unit": "µg/mL"}]}, {"smiles": "COC(=O)C12CCCC(C1)C1CCC2C1", "note": "(centres unmarked) [CH3]", "values": [{"measurement": "MCC", "setting": "in vitro", "result": 200, "unit": "µg/mL"}, {"measurement": "MIC", "setting": "Newcastle disease virus", "result": 200, "unit": "µg/mL"}]}, {"smiles": "NC12CC3CC(CC(C3)C1)C2", "note": "[adamantylamine hydrochloride, reference compound]", "values": [{"measurement": "MCC", "setting": "in vitro", "result": 250, "unit": "µg/mL"}, {"measurement": "MIC", "setting": "Newcastle disease virus", "result": 250, "unit": "µg/mL"}]}, {"smiles": "CCCCOC(=O)C12CCCC(C1)C1CCC2C1", "note": "(centres unmarked) [n-C4 H9]", "values": [{"measurement": "MCC", "setting": "in vitro", "result": 200, "unit": "µg/mL"}, {"measurement": "MIC", "setting": "Newcastle disease virus", "result": 40, "unit": "µg/mL"}]}, {"smiles": "CCCCCCCCOC(=O)C12CCCC(C1)C1CCC2C1", "note": "(centres unmarked) [n-C8 H17]", "values": [{"measurement": "MCC", "setting": "in vitro", "result": 1000, "unit": "µg/mL"}, {"measurement": "MIC", "setting": "Newcastle disease virus", "result": 200, "unit": "µg/mL"}]}]}
